Test results published in patent US20240254118A1, “PRMT5 INHIBITORS AND USES THEREOF” (Gilead Sciences, Inc., priority 2022, published 2024).

Key:
[1] = test system: SDMA signal (PRMT5 inhibition) in HCT116 MTAP-deleted cells; assay: Symmetric di-methyl arginine image-based high content screen assay (SDMA assay), HCT116 MTAP-deleted; type: cell-based; conditions: SDMA assay; for EC50: Homo sapiens, HCT-116, 72 h, 3 days of treatment, cell line not given, taken as HCT116 MTAP-deleted, read-out: EC50 (SDMA assay); for EC50 selectivity (SDMA assay): taken as HCT116 WT vs MTAP-deleted
Method in brief: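 Read-out: per-cell mean SDMA immunofluorescence (Alexa Fluor 488 secondary), cells segmented by DAPI on a high-content imager. Compound exposure in HCT116 MTAP-deleted cells lasted until fixation on Day 3; overnight 4° C primary anti-SDMA antibody staining.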

[2] = test system: HCT116 MTAP-deleted cells; assay: Cell viability assay (CellTiter-Glo, 7 days), HCT116 MTAP-deleted; conditions: Homo sapiens, HCT-116, 168 h

| EC50 [1] | EC50 selectivity (SDMA assay) [1] | Structure (SMILES) | CC50 [2] |
| --- | --- | --- | --- |
| < 1 nM | 394 | CC(=O)N(C)N(Cc1cc(F)c(F)cc1Cl)C(=O)c1ccc2nc(N)c3cnn(C)c3c2c1 [Example 450, N′-acetyl-4-amino-N-(2-chloro-4,5-difluorobenzyl)-N′,1-dimethyl-1H-pyrazolo[4,3-c]quinoline-8-carbohydrazide] | < 100 nM |
| < 1 nM | 111 | CC(=O)N(C)N(Cc1ccc(F)cc1Cl)C(=O)c1ccc2nc(N)c3cnn(C)c3c2c1 [Example 451, N′-acetyl-4-amino-N-(2-chloro-4-fluorobenzyl)-N′,1-dimethyl-1H-pyrazolo[4,3-c]quinoline-8-carbohydrazide] | < 100 nM |
| < 1 nM | 213 | CC(=O)N(C)N(Cc1ccc(F)cc1C#N)C(=O)c1ccc2nc(N)c3cnn(C)c3c2c1 [Example 452, N′-acetyl-4-amino-N-(2-cyano-4-fluorobenzyl)-N′,1-dimethyl-1H-pyrazolo[4,3-c]quinoline-8-carbohydrazide] | < 100 nM |
| < 1 nM | 15 | CN(CC1CCC1)N(Cc1ccc(C(F)(F)F)cn1)C(=O)c1cc2c(cc1F)nc(N)c1cnn(C)c12 [Example 453, 4-amino-N′-(cyclobutylmethyl)-7-fluoro-N′,1-dimethyl-N-((5-(trifluoromethyl)pyridin-2-yl)methyl)-1H-pyrazolo[4,3-c]quinoline-8-carbohydrazide] | < 100 nM |
| 1 to 5 nM | 421 | CCC(=O)N(C)N(Cc1ncc(C(F)(F)F)cc1Cl)C(=O)c1ccc2nc(N)c3cnn(C)c3c2c1 [Example 454, 4-amino-N-((3-chloro-5-(trifluoromethyl)pyridin-2-yl)methyl)-N′,1-dimethyl-N′-propionyl-1H-pyrazolo[4,3-c]quinoline-8-carbohydrazide] | < 100 nM |
| < 1 nM | 92 | CCN(C)N(Cc1ccc(C(F)(F)F)cn1)C(=O)c1ccc2nc(N)c3cnn(C)c3c2c1 [Example 455, 4-amino-N′-ethyl-N′,1-dimethyl-N-((5-(trifluoromethyl)pyridin-2-yl)methyl)-1H-pyrazolo[4,3-c]quinoline-8-carbohydrazide] | < 100 nM |
| < 1 nM | 25 | CCN(C)N(Cc1ccc(C(F)(F)F)cn1)C(=O)c1cc2c(cc1F)nc(N)c1cnn(C)c12 [Example 456, 4-amino-N′-ethyl-7-fluoro-N′,1-dimethyl-N-((5-(trifluoromethyl)pyridin-2-yl)methyl)-1H-pyrazolo[4,3-c]quinoline-8-carbohydrazide] | < 100 nM |
| < 1 nM | 90 | CC(=O)N(C)N(Cc1ccc(Cl)cc1C#N)C(=O)c1ccc2nc(N)c3cnn(C)c3c2c1 [Example 457, N′-acetyl-4-amino-N-(4-chloro-2-cyanobenzyl)-N′,1-dimethyl-1H-pyrazolo[4,3-c]quinoline-8-carbohydrazide] | < 100 nM |
